Read-outs that look alike come from different tables or passages of the source.
Key:
[1] = Rodent pharmacokinetics of PIE12-trimer and conjugates (Table 3 protocol); format: in vivo, Sprague Dawley rats; conditions: rats, 1.0 mg/kg, plasma, median; for half-life: read-out: T1/2 (converted)
Experimental: At each timepoint, plasma was obtained using lithium heparin.
Samples were spiked with an internal standard then precipitated with two volumes of 98% acetonitrile/2% Formic acid. Supernatants were analyzed by LC/MS/MS using an Agilent HPLC system (Waters X-Bridge BEH C18 column) paired to an AB Sciex API 3000 triple-quad mass spectrometer using MRM methods. Lipid conjugates required lower source temperatures (300° C. vs 500° C.) for improved reproducibility.

[2] = molecular target: HXB2 (X4) luciferase reporter pseudovirions on HOS-CD4-CXCR4; conditions: values marked * from Francis, et al. Bioconjugates, read-out: Antiviral potency HXB2 (IC50); cited from earlier work
[3] = molecular target: JRFL (R5) luciferase reporter pseudovirions on HOS-CD4-CCR5; conditions: values marked * from Francis, et al. Bioconjugates, read-out: Antiviral potency JRFL (IC50); cited from earlier work

CC(=O)N[C@H](Cc1c[nH]cn1)C(=O)N1CCC[C@@H]1C(=O)N[C@@H]1CSSC[C@H](C(=O)N[C@H](CCC(=O)O)C(=O)N[C@H](CC(C)C)C(=O)NCC(=O)N[C@H](CCCCNC(=O)CCOCCOCCOCCOCCNC(=O)CCOCC(N)(COCCC(=O)NCCOCCOCCOCCOCCC(=O)NCCCC[C@@H](NC(=O)CNC(=O)[C@@H](CC(C)C)NC(=O)[C@@H](CCC(=O)O)NC(=O)[C@H]2CSSC[C@@H](NC(=O)[C@H]3CCCN3C(=O)[C@@H](Cc3c[nH]cn3)NC(C)=O)C(=O)N[C@H](CC(=O)O)C(=O)N[C@H](Cc3ccc(O)cc3)C(=O)N3CCC[C@@H]3C(=O)N[C@H](CCC(=O)O)C(=O)N[C@H](Cc3c[nH]c4ccccc34)C(=O)N[C@H](CCC(N)=O)C(=O)N[C@H](Cc3c[nH]c4ccccc34)C(=O)N[C@H](CC(C)C)C(=O)N2)C(N)=O)COCCC(=O)NCCOCCOCCOCCOCCC(=O)NCCCC[C@@H](NC(=O)CNC(=O)[C@@H](CC(C)C)NC(=O)[C@@H](CCC(=O)O)NC(=O)[C@H]2CSSC[C@@H](NC(=O)[C@H]3CCCN3C(=O)[C@@H](Cc3c[nH]cn3)NC(C)=O)C(=O)N[C@H](CC(=O)O)C(=O)N[C@H](Cc3ccc(O)cc3)C(=O)N3CCC[C@@H]3C(=O)N[C@H](CCC(=O)O)C(=O)N[C@H](Cc3c[nH]c4ccccc34)C(=O)N[C@H](CCC(N)=O)C(=O)N[C@H](Cc3c[nH]c4ccccc34)C(=O)N[C@H](CC(C)C)C(=O)N2)C(N)=O)C(N)=O)NC(=O)[C@@H](CC(C)C)NC(=O)[C@@H](Cc2c[nH]c3ccccc23)NC(=O)[C@@H](CCC(N)=O)NC(=O)[C@@H](Cc2c[nH]c3ccccc23)NC(=O)[C@@H](CCC(=O)O)NC(=O)[C@H]2CCCN2C(=O)[C@@H](Cc2ccc(O)cc2)NC(=O)[C@@H](CC(=O)O)NC1=O [PIE12-trimer]
AUC(0-inf) ([1]; rat, in vivo, IV): 0.168 µM·h | C0 ([1]; rat, in vivo, IV): 275 nM | clearance ([1]; rat, in vivo, IV, read-out: Cl (obs) (converted)): 13.9 mL/min/kg | half-life ([1]; rat, in vivo, IV): 33 min | Vd ([1]; rat, in vivo, IV, read-out: Vz (obs)): 0.7 L/kg | AUC(0-inf) ([1]; rat, in vivo, SC): 0.208 µM·h | Cmax ([1]; rat, in vivo, SC): 80 nM | Tmax ([1]; rat, in vivo, SC): 30 min | half-life ([1]; rat, in vivo, SC): 48.6 min | F ([1]; SC): 96% | IC50 [2]: 0.72 ± 0.04 nM | IC50 [3]: 2.1 ± 0.28 nM

From patent publication US10487121B2, “D-peptide inhibitors of HIV entry and methods of use” (priority 2016, dated 2019)
